Activity calls are given as the source filed them.

Holding throughout (type): functional
Experiment [1] addresses T1, Apoptotic protease-activating factor 1 (Homo sapiens, UniProt O14727).
T1 sequence (O14727 whole entry): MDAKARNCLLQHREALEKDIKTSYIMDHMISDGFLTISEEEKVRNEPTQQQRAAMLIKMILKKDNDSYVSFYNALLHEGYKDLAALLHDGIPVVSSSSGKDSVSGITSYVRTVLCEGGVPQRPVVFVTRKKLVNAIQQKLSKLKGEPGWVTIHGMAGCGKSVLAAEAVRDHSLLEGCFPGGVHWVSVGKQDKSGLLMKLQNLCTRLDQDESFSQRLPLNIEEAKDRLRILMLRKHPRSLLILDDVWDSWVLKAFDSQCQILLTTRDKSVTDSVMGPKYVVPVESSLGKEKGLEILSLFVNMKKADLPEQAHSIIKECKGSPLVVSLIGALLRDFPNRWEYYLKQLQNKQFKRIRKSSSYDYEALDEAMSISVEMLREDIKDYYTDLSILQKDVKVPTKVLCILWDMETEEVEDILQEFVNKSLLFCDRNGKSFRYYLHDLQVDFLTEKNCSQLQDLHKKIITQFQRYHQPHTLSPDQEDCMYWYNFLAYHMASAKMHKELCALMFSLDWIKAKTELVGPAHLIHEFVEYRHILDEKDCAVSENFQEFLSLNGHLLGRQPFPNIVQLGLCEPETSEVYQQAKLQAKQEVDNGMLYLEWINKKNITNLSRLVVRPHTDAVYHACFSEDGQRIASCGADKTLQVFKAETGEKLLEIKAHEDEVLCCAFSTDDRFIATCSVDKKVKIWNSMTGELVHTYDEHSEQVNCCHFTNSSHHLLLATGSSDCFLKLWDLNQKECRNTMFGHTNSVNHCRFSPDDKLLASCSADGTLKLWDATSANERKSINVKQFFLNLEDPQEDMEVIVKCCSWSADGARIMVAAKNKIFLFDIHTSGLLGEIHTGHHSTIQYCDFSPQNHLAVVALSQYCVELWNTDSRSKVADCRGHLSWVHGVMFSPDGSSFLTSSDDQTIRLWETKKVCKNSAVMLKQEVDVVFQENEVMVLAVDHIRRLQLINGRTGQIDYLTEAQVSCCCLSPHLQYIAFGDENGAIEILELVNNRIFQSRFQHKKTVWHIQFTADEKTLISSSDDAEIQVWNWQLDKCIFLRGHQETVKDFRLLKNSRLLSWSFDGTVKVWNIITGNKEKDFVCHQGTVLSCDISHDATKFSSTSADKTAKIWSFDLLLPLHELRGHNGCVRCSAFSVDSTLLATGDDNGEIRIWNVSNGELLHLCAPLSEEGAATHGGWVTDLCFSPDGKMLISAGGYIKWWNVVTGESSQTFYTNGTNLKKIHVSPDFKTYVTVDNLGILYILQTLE

The target of experiment [2] is ALK tyrosine kinase receptor (Homo sapiens, UniProt Q9UM73).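 Note: ALK tested as one member of a kinase panel screen.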
For experiment [3], the target named is BDNF/NT-3 growth factors receptor (Homo sapiens, UniProt Q16620).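 Note: NTRK2 measured as one member of a broad kinome-wide kinase profiling panel.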
BDNF/NT-3 growth factors receptor, sequence (Q16620 whole entry): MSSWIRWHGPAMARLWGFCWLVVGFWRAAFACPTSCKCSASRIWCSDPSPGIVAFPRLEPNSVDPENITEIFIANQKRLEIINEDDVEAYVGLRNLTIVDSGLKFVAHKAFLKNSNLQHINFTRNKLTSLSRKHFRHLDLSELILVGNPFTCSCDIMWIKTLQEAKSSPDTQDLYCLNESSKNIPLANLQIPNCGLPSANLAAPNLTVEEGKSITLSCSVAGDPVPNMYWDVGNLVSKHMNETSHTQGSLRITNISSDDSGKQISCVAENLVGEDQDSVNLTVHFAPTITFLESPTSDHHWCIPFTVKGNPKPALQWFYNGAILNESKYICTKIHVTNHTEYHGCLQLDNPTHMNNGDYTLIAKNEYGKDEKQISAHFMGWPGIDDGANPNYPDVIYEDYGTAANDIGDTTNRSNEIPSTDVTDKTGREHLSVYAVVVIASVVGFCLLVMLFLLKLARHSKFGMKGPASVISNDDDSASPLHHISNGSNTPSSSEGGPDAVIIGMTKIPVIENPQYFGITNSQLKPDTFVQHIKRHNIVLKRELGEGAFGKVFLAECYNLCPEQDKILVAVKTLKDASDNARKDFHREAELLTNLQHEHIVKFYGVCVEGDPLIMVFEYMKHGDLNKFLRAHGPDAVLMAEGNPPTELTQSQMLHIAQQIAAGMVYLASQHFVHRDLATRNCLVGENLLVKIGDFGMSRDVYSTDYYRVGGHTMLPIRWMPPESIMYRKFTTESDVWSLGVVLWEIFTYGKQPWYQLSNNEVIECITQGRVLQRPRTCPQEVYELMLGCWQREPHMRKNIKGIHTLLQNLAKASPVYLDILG
For experiment [4], the target named is T2, Tyrosine-protein kinase receptor TYRO3 (Homo sapiens, UniProt Q06418).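 Note: TYRO3 value obtained as one member of a kinome-wide profiling panel.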
T2 sequence (Q06418 whole entry): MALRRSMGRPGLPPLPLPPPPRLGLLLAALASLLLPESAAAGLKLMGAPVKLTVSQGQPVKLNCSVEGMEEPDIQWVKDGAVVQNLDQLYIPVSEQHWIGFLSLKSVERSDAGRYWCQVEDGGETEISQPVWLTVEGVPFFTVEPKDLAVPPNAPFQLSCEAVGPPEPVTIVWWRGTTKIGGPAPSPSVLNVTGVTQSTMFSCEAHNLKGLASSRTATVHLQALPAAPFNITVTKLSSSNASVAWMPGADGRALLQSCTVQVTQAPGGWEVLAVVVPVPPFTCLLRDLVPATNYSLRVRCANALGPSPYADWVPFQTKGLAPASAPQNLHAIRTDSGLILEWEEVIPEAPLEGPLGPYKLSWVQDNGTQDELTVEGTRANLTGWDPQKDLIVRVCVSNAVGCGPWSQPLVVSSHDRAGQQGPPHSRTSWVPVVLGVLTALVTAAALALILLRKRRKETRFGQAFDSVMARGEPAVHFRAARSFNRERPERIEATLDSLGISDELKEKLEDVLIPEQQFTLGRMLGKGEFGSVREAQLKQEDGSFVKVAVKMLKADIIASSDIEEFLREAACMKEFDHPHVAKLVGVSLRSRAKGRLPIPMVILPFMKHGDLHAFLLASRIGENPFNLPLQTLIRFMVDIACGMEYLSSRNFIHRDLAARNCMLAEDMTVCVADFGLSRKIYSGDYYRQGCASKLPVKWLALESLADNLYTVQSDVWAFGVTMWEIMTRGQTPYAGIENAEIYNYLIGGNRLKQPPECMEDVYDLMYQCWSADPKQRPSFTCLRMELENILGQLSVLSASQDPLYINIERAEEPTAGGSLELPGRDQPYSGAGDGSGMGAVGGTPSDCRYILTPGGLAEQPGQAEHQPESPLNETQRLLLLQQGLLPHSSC

In experiment [5] the target is Glycogen synthase kinase-3 beta (Homo sapiens, UniProt P49841).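 Note: value comes from a broad kinome profiling panel, with GSK3B as the panel member.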
Glycogen synthase kinase-3 beta, sequence (P49841 whole entry): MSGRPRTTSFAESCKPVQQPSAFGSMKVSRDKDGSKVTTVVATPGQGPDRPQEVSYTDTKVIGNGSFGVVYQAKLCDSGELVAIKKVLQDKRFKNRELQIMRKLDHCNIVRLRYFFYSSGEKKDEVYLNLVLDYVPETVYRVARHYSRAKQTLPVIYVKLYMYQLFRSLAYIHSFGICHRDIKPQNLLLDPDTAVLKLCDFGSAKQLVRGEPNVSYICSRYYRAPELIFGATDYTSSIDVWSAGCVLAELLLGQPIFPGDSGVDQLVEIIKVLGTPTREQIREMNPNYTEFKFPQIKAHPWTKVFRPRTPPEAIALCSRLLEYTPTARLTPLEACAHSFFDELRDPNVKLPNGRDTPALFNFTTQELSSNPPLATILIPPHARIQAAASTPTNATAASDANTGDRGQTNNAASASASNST
Experiment [6] deals with cAMP-dependent protein kinase catalytic subunit alpha (Homo sapiens, UniProt P17612).
For experiment [7], the target named is Cyclin-dependent kinase 7 (Homo sapiens, UniProt P50613).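 Note: value comes from a kinome-wide kinase profiling panel in which CDK7 is one member.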
Cyclin-dependent kinase 7, sequence (P50613 whole entry): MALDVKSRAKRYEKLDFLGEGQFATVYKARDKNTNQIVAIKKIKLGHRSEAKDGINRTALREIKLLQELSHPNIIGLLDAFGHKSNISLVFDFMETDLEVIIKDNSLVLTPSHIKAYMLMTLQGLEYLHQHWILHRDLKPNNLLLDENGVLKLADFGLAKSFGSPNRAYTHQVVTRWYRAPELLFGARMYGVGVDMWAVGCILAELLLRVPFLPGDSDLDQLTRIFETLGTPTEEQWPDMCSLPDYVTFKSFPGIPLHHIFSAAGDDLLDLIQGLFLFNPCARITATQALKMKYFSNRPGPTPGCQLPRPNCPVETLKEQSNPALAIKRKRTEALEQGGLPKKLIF
For experiment [8], the target named is Leukocyte tyrosine kinase receptor (Homo sapiens, UniProt P29376). The experiment is described as follows: Navigating the Kinome. Panel member name: LTK.
Leukocyte tyrosine kinase receptor, sequence (P29376 whole entry): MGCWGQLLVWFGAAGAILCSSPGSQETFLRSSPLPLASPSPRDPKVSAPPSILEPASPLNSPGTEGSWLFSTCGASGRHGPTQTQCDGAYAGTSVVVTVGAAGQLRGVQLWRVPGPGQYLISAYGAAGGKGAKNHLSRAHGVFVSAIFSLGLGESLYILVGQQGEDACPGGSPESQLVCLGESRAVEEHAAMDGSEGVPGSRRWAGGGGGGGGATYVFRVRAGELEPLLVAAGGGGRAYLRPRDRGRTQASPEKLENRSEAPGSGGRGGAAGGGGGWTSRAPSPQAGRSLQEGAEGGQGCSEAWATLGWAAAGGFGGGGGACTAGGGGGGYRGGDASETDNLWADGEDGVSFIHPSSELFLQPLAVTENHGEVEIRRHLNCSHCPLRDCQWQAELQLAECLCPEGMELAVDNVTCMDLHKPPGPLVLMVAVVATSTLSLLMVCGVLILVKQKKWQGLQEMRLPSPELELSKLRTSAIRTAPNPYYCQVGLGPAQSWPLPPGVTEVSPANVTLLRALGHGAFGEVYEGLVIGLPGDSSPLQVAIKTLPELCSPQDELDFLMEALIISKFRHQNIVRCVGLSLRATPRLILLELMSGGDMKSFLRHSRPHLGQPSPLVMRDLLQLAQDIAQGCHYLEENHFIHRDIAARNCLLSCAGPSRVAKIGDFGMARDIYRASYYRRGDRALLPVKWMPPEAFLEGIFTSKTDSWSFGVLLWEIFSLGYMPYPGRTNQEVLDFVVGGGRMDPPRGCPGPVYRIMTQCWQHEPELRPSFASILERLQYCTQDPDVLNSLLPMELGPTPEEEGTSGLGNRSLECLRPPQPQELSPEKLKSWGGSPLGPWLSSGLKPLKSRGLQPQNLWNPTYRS
For experiment [9], the target named is Protein kinase C theta type (Homo sapiens, UniProt Q04759). The experiment is described as follows: Navigating the Kinome. Panel member name: PRKCQ.
Protein kinase C theta type, sequence (Q04759 whole entry): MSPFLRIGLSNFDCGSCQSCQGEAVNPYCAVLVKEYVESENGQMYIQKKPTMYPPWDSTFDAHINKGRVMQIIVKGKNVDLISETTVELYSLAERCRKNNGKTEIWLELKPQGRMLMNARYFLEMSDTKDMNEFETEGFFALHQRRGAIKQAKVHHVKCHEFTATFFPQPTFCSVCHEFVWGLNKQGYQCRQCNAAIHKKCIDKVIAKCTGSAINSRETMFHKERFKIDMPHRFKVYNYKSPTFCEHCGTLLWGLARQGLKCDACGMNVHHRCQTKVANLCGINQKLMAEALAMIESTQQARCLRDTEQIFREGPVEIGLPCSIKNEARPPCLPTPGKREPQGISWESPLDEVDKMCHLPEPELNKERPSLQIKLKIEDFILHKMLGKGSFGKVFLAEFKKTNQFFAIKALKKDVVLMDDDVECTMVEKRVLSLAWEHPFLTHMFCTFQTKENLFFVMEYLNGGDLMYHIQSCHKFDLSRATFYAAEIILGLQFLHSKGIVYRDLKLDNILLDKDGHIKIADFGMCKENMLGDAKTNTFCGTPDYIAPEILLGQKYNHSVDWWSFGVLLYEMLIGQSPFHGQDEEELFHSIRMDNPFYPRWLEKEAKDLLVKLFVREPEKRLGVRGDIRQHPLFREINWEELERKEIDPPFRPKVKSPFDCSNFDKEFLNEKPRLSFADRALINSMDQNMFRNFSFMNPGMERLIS
In experiment [10] the target is Vascular endothelial growth factor receptor 1 (Homo sapiens, UniProt P17948).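 Note: measured within a kinome-wide profiling panel, FLT1 as the panel member.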
Vascular endothelial growth factor receptor 1, sequence (P17948 whole entry): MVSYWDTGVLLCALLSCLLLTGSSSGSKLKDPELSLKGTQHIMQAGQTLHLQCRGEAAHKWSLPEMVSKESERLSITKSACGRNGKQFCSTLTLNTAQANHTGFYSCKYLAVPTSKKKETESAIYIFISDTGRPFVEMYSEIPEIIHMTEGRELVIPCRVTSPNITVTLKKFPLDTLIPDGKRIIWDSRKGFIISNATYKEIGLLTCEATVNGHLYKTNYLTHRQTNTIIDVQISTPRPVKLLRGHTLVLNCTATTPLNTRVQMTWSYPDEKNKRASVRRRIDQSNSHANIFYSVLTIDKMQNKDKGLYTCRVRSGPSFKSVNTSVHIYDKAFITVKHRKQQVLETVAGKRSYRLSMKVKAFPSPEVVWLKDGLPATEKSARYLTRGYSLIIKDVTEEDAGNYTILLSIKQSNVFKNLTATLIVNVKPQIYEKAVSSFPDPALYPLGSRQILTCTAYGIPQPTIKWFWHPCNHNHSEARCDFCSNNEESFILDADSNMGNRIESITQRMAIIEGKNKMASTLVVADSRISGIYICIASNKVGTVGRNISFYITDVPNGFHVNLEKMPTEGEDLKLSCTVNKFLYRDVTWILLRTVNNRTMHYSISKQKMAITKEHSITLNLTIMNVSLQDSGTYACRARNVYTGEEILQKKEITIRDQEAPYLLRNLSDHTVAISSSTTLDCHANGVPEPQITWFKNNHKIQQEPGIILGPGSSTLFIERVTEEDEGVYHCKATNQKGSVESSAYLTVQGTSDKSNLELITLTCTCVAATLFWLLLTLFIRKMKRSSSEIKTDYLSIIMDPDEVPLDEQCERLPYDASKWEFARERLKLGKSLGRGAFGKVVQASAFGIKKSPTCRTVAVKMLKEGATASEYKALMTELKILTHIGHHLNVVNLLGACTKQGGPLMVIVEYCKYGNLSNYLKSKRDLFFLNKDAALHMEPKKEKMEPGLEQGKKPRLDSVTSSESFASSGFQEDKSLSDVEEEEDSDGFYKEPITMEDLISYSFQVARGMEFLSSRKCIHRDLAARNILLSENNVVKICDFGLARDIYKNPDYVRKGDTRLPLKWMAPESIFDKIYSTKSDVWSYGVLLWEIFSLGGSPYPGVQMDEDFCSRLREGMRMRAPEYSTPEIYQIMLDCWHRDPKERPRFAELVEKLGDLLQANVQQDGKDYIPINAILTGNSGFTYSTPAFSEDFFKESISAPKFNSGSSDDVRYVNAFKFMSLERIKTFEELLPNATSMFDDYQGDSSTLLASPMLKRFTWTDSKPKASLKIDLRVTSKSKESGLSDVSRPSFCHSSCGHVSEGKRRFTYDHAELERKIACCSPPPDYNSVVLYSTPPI
In experiment [11] the target is Dual specificity tyrosine-phosphorylation-regulated kinase 1A (Homo sapiens, UniProt Q13627).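 Note: measured against DYRK1A as one member of a broad kinome profiling panel.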

As a reminder, the IC50 is the concentration that inhibits the measured activity by half. With `CCN(CC)CCOc1ccc2c(c1)C(=NNC(=O)c1ccccn1)c1cc(OCCN(CC)CC)ccc1-2`, the IC50 in experiment [1] was 10200 nM (active).
For the molecule `O=C(NC1=C(Nc2ccc(F)cc2)C(=O)c2ccccc2C1=O)c1ccc(Cl)cc1`, the IC50 in experiment [1] was 16200 nM (active).
As for `COc1cc2cc(NC(C)=O)cc(NCc3ccccc3)c2cc1OC`, the IC50 in experiment [1] was 20700 nM (active).
On to `Oc1nc(Nc2ccc(F)cc2)cc2ccccc12`, for which the IC50 in [1] was 3760 nM (active).
On to `CN(C)c1cc(N/N=C\c2ccccc2)nc(N(C)C)n1`, for which, in experiment [1], the IC50 is 1100 nM (active).
As usually defined, the Ki is a measure of affinity in units of concentration, obtained from inhibition or displacement. As for `O=C1Nc2cc(-c3ccc(O)cc3)ccc2C1=Cc1ccc[nH]1`, the Ki in [2] is 12.6 nM (active); in experiment [3] it was 631 nM (active); in [4] it was 2000 nM (active); in experiment [5] it was 501 nM (active); in [6], > 1260 nM (inactive); in experiment [7] it was > 3980 nM (inactive). In addition, the Ki in [8] is 3.98 nM (active); in experiment [9], 316 nM (active); in [10], 20 nM (active); in [11], > 2000 nM (inactive).
Consider `NC(COc1cncc(-c2ccc3c(c2)C(=Cc2ccc[nH]2)C(=O)N3)c1)Cc1ccccc1` (stereo not given), for which the Ki is 200 nM (active) in experiment [2]; 5.01 nM (active) in experiment [3]; 25.1 nM (active) in experiment [4]; 2.51 nM (active) in [5]; 1.26 nM (active) in experiment [6]; 10 nM (active) in experiment [7]. The Ki in experiment [8] is 126 nM (active); in [9] it was 3.98 nM (active); in [10], 0.631 nM (active); in experiment [11], 0.398 nM (active).
On to `O=C1Cc2cc(-c3ccccc3)cnc2N1`, for which the Ki in experiment [2] was 63100 nM (active); in experiment [3], 100000 nM (active); in experiment [4], 20000 nM (active); in experiment [5], 15800 nM (active); in experiment [6], > 50100 nM (inactive); in [7] it was 39800 nM (active). Also, the Ki in experiment [8] was 15800 nM (active); in experiment [9] it was 63100 nM (active); in experiment [10], 79400 nM (active); in [11], 39800 nM (active).

For the origin of these results see ChEMBL document CHEMBL1201862, “PubChem BioAssay data set” (2004).
